Data reported in patent publication US20250360091A1, “COMBINATION OF SGLT2 INHIBITOR AND MENTHOL AND USE THEREOF IN TREATMENT OF HEART DISEASE” (EAST CHINA UNIVERSITY OF SCIENCE AND TECHNOLOGY, priority 2023, published 2025).

How the values were obtained:
[1] = test system: intracellular calcium concentration; assay: Intracellular calcium ion concentration with calcium probe Fluo4-AM (Example 5); type: cell-based; conditions: cariporide 100 μM, empagliflozin 50 μM, menthol 200 μM, combination 50 μM + 200 μM
From the text: Intracellular calcium overload is an important factor in the transition of myocardial cells from reversible to irreversible damage. Intracellular calcium overload can be seen in a variety of cardiac pathological states, such as cardiac remodeling, myocardial ischemia-reperfusion injury, viral myocarditis, dilated cardiomyopathy, arrhythmias, and congestive heart failure. […] Empagliflozin can act on the sodium-hydrogen exchanger 1 (NHE1) on the myocardial cell membrane. When myocardial ischemia occurs, myocardial cell energy metabolism is impaired, and myocardial cells switch from fatty acid metabolism to sugar-free glycolysis, producing a large amount of lactic acid, which reduces the intracellular pH. As a regulatory protein for cell pH homeostasis, NHE1 can transport H^+ out of the cell by exchanging extracellular sodium ions, resulting in an increase in the intracellular sodium ion concentration. […] When mitochondrial function is impaired, the release of ROS increases, and ROS can further stimulate L-type calcium channels, promoting Ca^2+ influx, creating a vicious cycle. Empagliflozin inhibits the activity of NHE1 and can indirectly reduce the intracellular calcium ion concentration. Menthol, as an L-type calcium channel blocker, can synergistically reduce the intracellular calcium ion concentration with empagliflozin, playing a synergistic role. In order to verify this synergistic mechanism, the intracellular calcium ion concentration was detected using the calcium ion probe Fluo4-AM.
The experiment was divided into 5 groups, including control group (no drug group), cariporide group (positive control group, 100 μM), EMPA-50 (empagliflozin, 50 μM), M-200 (menthol, 200 μM), and E50+M200 (combination of 50 μM empagliflozin and 200 μM menthol).
• (1) Take an appropriate amount of Fluo4-AM stock solution (2 mM, BeyoTime, S1060) and dilute it to a 10 μM working solution with HBSS; • (2) For the cells to be tested (covering the bottom of the dish), remove the culture medium and wash with HBSS three times; • (3) Add 25 μL of Fluo4-AM working solution to each well, and then add 25 μL of compound solution to each well; • (4) Incubate at 37° C. for 30 min for fluorescent probe loading; • (5) Wash three times with HBSS, and add 100 μL of HBSS containing 10 mM CaCl2) to each well. Detect quantitatively the fluorescence of Fluo4-AM using a multifunctional fluorescence microplate reader (excitation wavelength 488 nm, emission wavelength 520 nm) to determine the changes in intracellular calcium ions.
Since empagliflozin indirectly affects intracellular calcium concentration by inhibiting NHE1, the intracellular environment was made acidic by using ammonium chloride solution to simulate the environment during myocardial ischemia, and the effect of the administered composition on intracellular calcium ions was tested. The NHE1 inhibitor cariporide was used as a positive control. The above step (3) was changed to add 25 μL of Fluo4-AM working solution to each well, mix the test compound with 80 mM NH4Cl solution at a 1:1 ratio, and then add 25 μL mixed solution of the compound and NH4Cl to each well (the final concentration of NH4Cl was 20 mM), and the remaining steps were the same as above.

[2] = test system: Rat cardiomyocytes (H9c2); assay: GD-induced myocardial cell damage model, CCK-8, SGLT2 inhibitors with L-menthol (Example 9); type: cell-based; conditions: single drugs: SGLT2 inhibitor 50 μM or menthol 200 μM; GD 36-48 h; untreated group 54.7%
Experimental: In this example, the protective effect of the drug composition on myocardial cells was evaluated by using a GD-induced myocardial cell damage model. […] Rat cardiomyocytes (H9c2) were purchased from the Chinese Academy of Sciences Stem Cell Bank. The cardiomyocytes were cultured in high-glucose DMEM medium (Gibco, 11995-065) containing 10% fetal bovine serum and 1% penicillin/streptomycin, and incubated in a 37° C., 5% CO2 incubator. […] When the cells reached confluence, the DMEM medium was removed, and the cells were washed once with PBS. […] The synergistic coefficient was calculated using the Zero interaction dose model, with the formula: CI=(EAB−EA*EB)/(EA+EB−EA*EB), wherein CI is the synergistic effect index, EAB is the efficacy index of the combination of drugs, and EA and EB are the efficacy indices of the individual drugs, respectively.

| Compound | effect on intracellular calcium concentration (Fluo4-AM fluorescence) ([1]; NH4Cl present (20 mM, acidic intracellular conditions)) | effect on intracellular calcium concentration (Fluo4-AM fluorescence) ([1]; absence of NH4Cl) | cell survival rate [2] [%] |
| --- | --- | --- | --- |
| CC(C)c1ccc(C(=O)NC(=N)N)cc1S(C)(=O)=O [cariporide] | significantly reduce intracellular calcium concentration | almost no effect | – |
| CCOc1ccc(Cc2cc([C@]34OC[C@](CO)(O3)[C@@H](O)[C@H](O)[C@H]4O)ccc2Cl)cc1 [ertugliflozin] | – | – | 58.6 |
| canagliflozin | – | – | 60.2 |
| CCOc1ccc(Cc2cc([C@@H]3O[C@H](CO)[C@@H](O)[C@H](O)[C@H]3O)ccc2Cl)cc1 [dapagliflozin] | – | – | 58.9 |
